Assay results reported in paper PMC12049818, “Identification of NUV-244 as a PNPLA3 I148M degrading small molecule” (iScience, 2025).

Tests used:
Huh7 cells = assay: Total nuclear count in Huh7 cells; type: cell-based, human; settings: effective concentrations
Method: Indeed, NUV-244 has no effect on total nuclear count at effective concentrations in Huh7 cells and we frequently observed mitotic cells in the Hoechst channel even after 24h incubation (data not shown). This indicates low toxicity of NUV-244 at effective concentrations. We validated this by recording the growth curves of different cell lines upon NUV-244 incubation and found no effects of 1μM or 5μM NUV-244 on the proliferative capacity of Hep3B cells, or Huh7 and LX-2 cells compared to DMSO treated cells (Figure 6A). PNPLA3 I148M expression has been reported to sensitize cells against lipotoxicity and to induce mitochondrial dysfunction.[32]^,[34]^,[35]^,[36]^,[37]
Assay plates were evaluated based on Z’ scores (>0.6) and signal-to-background ratio (>12) using Genedata Screener® for HTS and Condoseo modules (Genedata, Switzerland). Normalization, quality control, and fitting curves for EC50 determination of tested compounds were performed with Genedata Screener® for high-content screening and Genedata Condoseo modules (Genedata AG, Basel, Switzerland). More than 820K cpds were screened on 791 1536W plates in 11 runs covering three weeks of primary HTS. Automated image analysis routines were set up to quantify the number, morphology and intensity of nuclei, lipid droplets and the intensity of PNPLA3 I148M-tagRFP on lipid droplets. […]

Hep3B cells = assay: Incucyte growth curves, Hep3B; type: cell-based, human; settings: 1μM or 5μM; compared to DMSO
Method: Huh7, Huh7 PNPLA3 I148M, Huh7 PNPLA3, Hep3b and LX-2 cells were seeded at a concentration of 1000 cells/well in 60 μl of growth medium on 384-well microtiter plates (Revvity, Waltham, MA, USA, PhenoPlate 384-well microplate, #6057308) and stored in a 37°C incubator with 5% CO2 and 95% humidity overnight. Next day cells were treated with DMSO as control (1% final concentration) or compound (1μM or 5μM final concentration) and cell density was recorded in the Incucyte® life cell imager (Sartorius, Göttingen, Germany) every 4 hours over a period of 5 days. Growth curves were generated by monitoring confluence over time. Proliferative capacity of PNPLA3 I148M-expressing cells was compared to control cells, and the restoration of proliferative fitness was analyzed.

PNPLA3 I148M = target: T1, PNPLA3 I148M (Homo sapiens, UniProt Q9NST1, I148M); assay: Western blot anti-PNPLA3, Huh7 PNPLA3 I148M; type: cell-based; parameters: host or cells: Huh7; settings: 5µM; 24h; two independent Western Blots, Mean +/- Stdev
T1 sequence (Q9NST1 1-481 I148M): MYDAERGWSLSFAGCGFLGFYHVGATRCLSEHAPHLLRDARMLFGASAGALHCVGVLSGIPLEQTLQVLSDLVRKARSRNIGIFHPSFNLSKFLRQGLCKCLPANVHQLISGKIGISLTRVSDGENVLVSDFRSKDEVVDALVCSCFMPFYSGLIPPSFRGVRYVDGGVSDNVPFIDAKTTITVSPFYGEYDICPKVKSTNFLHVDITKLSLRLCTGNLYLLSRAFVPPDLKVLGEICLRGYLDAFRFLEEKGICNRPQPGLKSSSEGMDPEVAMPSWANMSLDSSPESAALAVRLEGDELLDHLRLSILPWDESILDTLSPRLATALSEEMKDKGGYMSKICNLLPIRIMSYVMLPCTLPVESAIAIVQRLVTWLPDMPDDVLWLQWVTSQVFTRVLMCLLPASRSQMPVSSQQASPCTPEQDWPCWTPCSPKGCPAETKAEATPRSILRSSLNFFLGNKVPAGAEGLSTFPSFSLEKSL
Method: For SDS-PAGE and subsequent western blotting cells were harvested in 1x lysis buffer (50 mM Tris-Cl, pH 7.5, 150 mM NaCl, 1 mM EDTA, 1% Triton X-100) supplemented with complete mini protease inhibitor cocktail (Roche). Total protein concentration of samples was determined with a Bicinchoninic Acid (BCA) protein assay. Cell lysates were boiled for 10 min at 99°C with 1x NuPAGE LDS Sample Buffer and loaded onto a 4-12% Tris-Glycine SDS-PAGE gel. For immunoblotting proteins were transferred to a nitrocellulose membrane (0.2 μm pore size, Schleicher & Schuell) and blocked with Intercept (PBS) Blocking buffer (Licor), incubated with primary antibodies anti-PNPLA3 (1:500, C-8 Santa Cruz, SC-390252), anti-PNPLA3 (1:1000, Millipore, MABS2174) and anti-HSP90 (1:1000, Cell Signaling, #4877), and subsequently incubated with secondary antibodies IRDye 680 or IRDye 800 (1:2000; LI-COR Biosciences). Infrared signal was detected using the Odyssey imaging system (Licor). […]
a. Huh7, PNPLA3 I148M b. Huh7, PNPLA3 I148M-tagRFP […]
control NUV-244 control NUV-244
Supplemental Fig. 9: Western Blot NUV-244 a. […] PNPLA3 bands at 53kDa (unmodified in a.) or 80 kDa (PNPLA3 I148M-tagRFP) were quantified (signal above local background, normalized to loading control using LICOR Odyssey CLx / Image Studio) on two independent Western Blots and percent of intensity compared to DMSO controls calculated (Mean +/ - Stdev). […]

## Cc1cccc(Cc2nc(C)c(C(=O)Nc3cc(O)ccc3Cl)s2)c1 [NUV-244]
Huh7 cells
  effect on total nuclear count: no effect
Hep3B cells
  effect on proliferative capacity, Hep3B: no effects
PNPLA3 I148M
  PNPLA3 band, percent of intensity compared to DMSO controls: 67+/-12%
